Results published in PubChem BioAssay AID1963828 (Molecular Pharmacology Branch, DTP, NCI, 2024).

Tested on: 991263-137-R1-J2-PDC complex spheroid viability
Assay: Anticancer human tumor 991263-137-R1-J2-PDC patient-derived colon adenocarcinoma cell line growth inhibition [POLQ]
Conditions: for IC50: curve of first compound; for viability, T/C: stronger effect = lower value
Experimental: Multicellular complex tumor spheroid response to Polymerase (POL) inhibitors (novobiocin, ART-558, RP6685) in combination with a variety of drugs and investigational agents in selected tumor cell lines
The POL inhibitors (novobiocin, ART-558, and RP6685) were evaluated both individually and in combination with standard of care and investigational anticancer small molecules within a complex spheroid model of solid tumors. . Complex spheroids include a stromal component modeled by human endothelial cells (HUVEC) and fibroblasts modeled by human mesenchymal stem cells (MSCs). The concentration ranges selected for each drug and investigational agent were based upon clinically achievable concentrations if the clinical Cmax of the agent was known.
Compounds. The drugs and investigational agents: novobiocin (NSC847541), ART-558 (NSC835418), RP-6685 (NSC848927), peposertib (NSC802822), ceralasertib (NSC780249), elimusertib (NSC800525), camonsertib (NSC841442), AZD-1390 (NSC803789), olaparib (NSC753686), talazoparib (NSC767125), rucaparib (NSC756644), sotorasib (NSC818433), MRTX-1133 (NSC836407), SN-38 (NSC673596), topotecan (NSC609699), epotoside (NSC141540), doxorubicin (NSC123127), gemcitabine (NSC613327), 5-fluorouracil (NSC19893), paclitaxel (NSC125973), vemurafenib (NSC761431), MSA-2 (NSC828583), SN-011 (NSC837082), adavosertib (NSC754352), prexasertib (NSC758257), carboplatin (NSC241240) and oxaliplatin (NSC266046), were obtained from the National Cancer Institute (NCI) Developmental Therapeutics Program Chemical Repository (21). The FDA-approved anticancer drug set is available from the Developmental Therapeutics Program at https://dtp.cancer.gov/organization/dscb/obtaining/. […] The stock solutions were prepared in dimethyl sulfoxide (DMSO, Sigma-Aldrich, St. Louis, MO, cat. D2650), except for the platinum compounds which were prepared in saline (Quality Biological, Gaithersburg, MD, cat. 114-055-101), at 800-fold the tested concentration and stored at -70 degrees C prior to their use. All drugs and investigational agents were tested over a range starting from a high concentration at or near the clinical Cmax and decreasing in half-log increments. If the clinical Cmax for an agent had not been determined, the highest concentration tested was 10 microM, except for SN-38, which was tested at a high concentration of 1 microM.
Cell Culture. All cells were maintained in an incubator at 37 degrees C and 5% CO2 with 95% humidity. The PDC lines were cultured according to standard operating procedures established by the NCI PDMR (https://pdmr.cancer.gov). Table 3 of the manuscript, lists the cell lines along with the number of the three cell types plated to form the mct-spheroids and media for tumor cell growth. After thawing, all PDC lines, except 997537-175-T-J1-PDC and 415267-285-R-J2-PDC, were cultured in Matrigel-coated flasks prepared with a working solution of 1X Ham's F-12 nutrient mix, without supplementation (Thermo Fisher Scientific, cat. 11765054), 100 U/mL penicillin-streptomycin (Thermo Fisher Scientific, cat. 15140122), and 2.5% Matrigel (Corning Inc., Corning, NY, cat. 354248) for the first three passages. The two PDC lines 997537-175-T-J1-PDC and 415267-285-R-J2-PDC were cultured on uncoated flasks. The 857933-349-R-J2-PDC line was cultured in 6C/Colon 1B media containing advanced DMEM/F-12 (Thermo Fisher Scientific, cat. 12634028), 10 mM HEPES (Thermo Fisher Scientific, cat. 15630080), 1X GlutaMAX supplement (Thermo Fisher Scientific, cat. 35050061), 0.1 mg/mL primocin (InvivoGen, San Diego, CA, cat. ant-pm-2), 10% defined fetal bovine serum, heat inactivated (HyClone Laboratories Inc., Logan, UT, cat. SH30070.03HI), 50% L-WRN conditioned media (ATCC, cat. CRL-3276), 1.25 mM N-Acetyl-L-cysteine (Sigma-Aldrich, cat. A9165), 10 mM nicotinamide (Sigma-Aldrich, cat. N0636), 1X B-27 supplement (Thermo Fisher Scientific, cat. 17504044), 1X N-2 supplement (Thermo Fisher Scientific, cat. […]

[1] = second compound 0.0316 µM, first compound 0.0316 µM
[2] = second compound 0.0316 µM, first compound 0.1 µM
[3] = second compound 0.0316 µM, first compound 0.316 µM
[4] = second compound 0.0316 µM, first compound 1 µM
[5] = second compound 0.0316 µM, first compound 3.16 µM
[6] = second compound 0.0316 µM, first compound 10 µM
[7] = second compound 0.1 µM, first compound 0.0316 µM
[8] = second compound 0.1 µM, first compound 0.1 µM
[9] = second compound 0.1 µM, first compound 0.316 µM
[10] = second compound 0.1 µM, first compound 1 µM
[11] = second compound 0.1 µM, first compound 3.16 µM
[12] = second compound 0.1 µM, first compound 10 µM
[13] = second compound 0.316 µM, first compound 0.0316 µM
[14] = second compound 0.316 µM, first compound 0.1 µM
[15] = second compound 0.316 µM, first compound 0.316 µM
[16] = second compound 0.316 µM, first compound 1 µM
[17] = second compound 0.316 µM, first compound 3.16 µM
[18] = second compound 0.316 µM, first compound 10 µM
[19] = second compound 1 µM, first compound 0.0316 µM
[20] = second compound 1 µM, first compound 0.1 µM
[21] = second compound 1 µM, first compound 0.316 µM
[22] = second compound 1 µM, first compound 1 µM
[23] = second compound 1 µM, first compound 3.16 µM
[24] = second compound 1 µM, first compound 10 µM
[25] = second compound 3.16 µM, first compound 0.0316 µM
[26] = second compound 3.16 µM, first compound 0.1 µM
[27] = second compound 3.16 µM, first compound 0.316 µM
[28] = second compound 3.16 µM, first compound 1 µM
[29] = second compound 3.16 µM, first compound 3.16 µM
[30] = second compound 3.16 µM, first compound 10 µM
[31] = second compound 10 µM, first compound 0.0316 µM
[32] = second compound 10 µM, first compound 0.1 µM
[33] = second compound 10 µM, first compound 0.316 µM
[34] = second compound 10 µM, first compound 1 µM
[35] = second compound 10 µM, first compound 3.16 µM
[36] = second compound 10 µM, first compound 10 µM
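Note: spheroids exposed to compounds for 7 days before readout.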
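Throughout, for viability, T/C: 100% = DMSO vehicle control viability.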

CCc1cc2c(N3CCc4c(cc(Cn5ccnc5)cc4-c4cn(C)nc4C(F)(F)F)C3=O)cc(C)nc2c(OC)n1 + COC1C(OC(N)=O)C(O)C(Oc2ccc3c(O)c(NC(=O)c4ccc(O)c(CC=C(C)C)c4)c(=O)oc3c2C)OC1(C)C
IC50 (second compound 0.0316 µM): > 10 µM | IC50 (second compound 0.1 µM): > 10 µM | IC50 (second compound 0.316 µM): > 10 µM | IC50 (second compound 1 µM): > 10 µM | IC50 (second compound 3.16 µM): > 10 µM | IC50 (second compound 10 µM): > 10 µM | viability, T/C [1]: 108% | viability, T/C [2]: 89.5% | viability, T/C [3]: 103% | viability, T/C [4]: 91.4% | viability, T/C [5]: 100% | viability, T/C [6]: 79.9% | viability, T/C [7]: 109% | viability, T/C [8]: 117% | viability, T/C [9]: 102% | viability, T/C [10]: 89.1% | viability, T/C [11]: 106% | viability, T/C [12]: 101% | viability, T/C [13]: 99.6% | viability, T/C [14]: 113% | viability, T/C [15]: 95.9% | viability, T/C [16]: 92.2% | viability, T/C [17]: 100% | viability, T/C [18]: 88.9% | viability, T/C [19]: 97.4% | viability, T/C [20]: 93.8% | viability, T/C [21]: 81.1% | viability, T/C [22]: 95.8% | viability, T/C [23]: 106% | viability, T/C [24]: 82.2% | viability, T/C [25]: 105% | viability, T/C [26]: 113% | viability, T/C [27]: 101% | viability, T/C [28]: 102% | viability, T/C [29]: 102% | viability, T/C [30]: 86.1% | viability, T/C [31]: 95.4% | viability, T/C [32]: 104% | viability, T/C [33]: 89.8% | viability, T/C [34]: 105% | viability, T/C [35]: 86.4% | viability, T/C [36]: 89.4%

COc1cccc2c1C(=O)c1c(O)c3c(c(O)c1C2=O)CC(O)(C(=O)CO)CC3OC1CC(N)C(O)C(C)O1 (centres undefined) + Cc1cccc(N(C)C(=O)C2C(O)CCN2c2nc(C)cc(C(F)(F)F)c2C#N)c1
IC50 (second compound 0.0316 µM): 1.41 µM | IC50 (second compound 0.1 µM): 1.85 µM | IC50 (second compound 0.316 µM): 1.74 µM | IC50 (second compound 1 µM): 0.976 µM | IC50 (second compound 3.16 µM): 1.01 µM | IC50 (second compound 10 µM): 0.79 µM | viability, T/C [1]: 90.1% | viability, T/C [2]: 99.4% | viability, T/C [3]: 79.1% | viability, T/C [4]: 55.9% | viability, T/C [5]: 38.5% | viability, T/C [6]: 35.3% | viability, T/C [7]: 105% | viability, T/C [8]: 91.9% | viability, T/C [9]: 92.2% | viability, T/C [10]: 56.7% | viability, T/C [11]: 46.2% | viability, T/C [12]: 33.8% | viability, T/C [13]: 114% | viability, T/C [14]: 99.4% | viability, T/C [15]: 94.8% | viability, T/C [16]: 57.2% | viability, T/C [17]: 41.7% | viability, T/C [18]: 34.1% | viability, T/C [19]: 92.8% | viability, T/C [20]: 95.4% | viability, T/C [21]: 102% | viability, T/C [22]: 48.9% | viability, T/C [23]: 44.3% | viability, T/C [24]: 27.6% | viability, T/C [25]: 99.6% | viability, T/C [26]: 107% | viability, T/C [27]: 74.2% | viability, T/C [28]: 51.8% | viability, T/C [29]: 36.4% | viability, T/C [30]: 26.9% | viability, T/C [31]: 97.1% | viability, T/C [32]: 78.3% | viability, T/C [33]: 68.9% | viability, T/C [34]: 40.8% | viability, T/C [35]: 33.7% | viability, T/C [36]: 15.7%
